In one series the test system is bacteria. Nature of the series: Comparison of lead peptide to standard of care (Table 16).
A further series in a line: Hemolysis assay. Format: cell-based, human. The following applies: human, red blood cells; at respective MIC/MBC concentrations; melittin 3.125 μM = 100%. How it is done: The hemolytic score of the peptide variants and pexiganan (SEQ ID NO: 54) are compared to a strong hemolytic peptide, melittin 12 as a control. […] The minimum peptide concentration corresponding to 10% hemolysis (minimal hemolysis concentration, HC) of E1AM2=50 μM, V8LQ19L=12.5 μM, V8LQ19L C-2=3.125 μM, and pexiganan=12.5 μM respectively. Readings of the melittin at 3.125 μM were normalised to 100%.
Examination of hemolytic activity of ultra-short peptides was performed by isolating the red blood cells (RBCs) from human blood samples by centrifugation (1000 g, 4° C., 10 min) and resuspension in 27 mL PBS. This washing step was repeated four times before the RBCs were diluted to a 10% (v/v) suspension. […] Hemolytic properties of E1AM2 and pexiganan were evaluated with melittin used as a positive control, and PBS as a negative control. The plates were incubated at 37° C., for 30 min and then centrifuged (1258 g, 4° C., 6 min). 75 μL of supernatant were transferred into a flat-bottom clear 96-well plate and the OD576 nm was read. Readings of the melittin sample at 3.125 μM were normalized to 100%.

For series [1], the system named is pathogens isolated from the infected tissues of DFU patients. Nature of the series: Antibacterial test on pathogens from infected DFU tissues. The format is cell-based. As for the experimental part:
The varied colours and morphologies highlight the presence of multiple species and a diverse bacterial population within the infected tissues. Method: Freshly debrided infected tissues from DFU patients are weighed and immersed in 2 ml of MHB (Mueller-Hinton Broth) media for 48 hours to soften the tissues, facilitating the release of bacteria. These samples are subsequently sonicated for 1 minute at a 15A amplitude using a water bath sonicator to release the bacteria. The resultant slurry is plated on MHB media supplemented with 1.5% agar to isolate all bacteria. These bacterial isolates are then evaluated for their antibacterial efficacy following the CLSI (Clinical and Laboratory Standards Institute) guidelines.
In some examples, the effective bacteria killing concentration range for the variant peptides can be, but is not limited to at least about 1.5 μM, at least about 2 μM, at least about 2.5 μM, at least about 5 μM, at least about 7.5 μM, at least about 10 μM, at least about 12.5 μM, at least about 15 μM, at least about 15 μM, at least about 17.5 μM, at least about 20 μM, at least about 25 μM, at least about 35 μM, or at least about 45 μM. In one example, the effective biofilm disruption concentration ranges from about 1.5 μM-25 μM or 1.5 μM-50 μM. In another example, the concentration is between about 40 μM to 50 μM.

For series [2], the system named is Pseudomonas aeruginosa PA CRM-9027. Description: Broth microdilution, PA CRM-9027 (ear-eye infections). The following applies: PA CRM-9027. The format is cell-based, Pseudomonas aeruginosa (CRM-9027). How it is done: Bacteria strains involved in lung infection in cystic fibrosis patients (PA-BAA 2110) and ear-eye infections (PA-CRM 9027) are treated with exemplary variant peptides, such as E1AM2 and Q19L.
Examination of the potency of modified short peptides against PA and SA strains was performed by using the broth microdilution protocol from the Clinical and Laboratory Standards Institute (CLSI) guidelines (CLSI 2012) as described. Briefly, five freshly plated bacteria colonies were grown in cation adjusted MH2 broth (BD Biosciences) in a shaker incubator at 37° C., 220 RPM. Cells were grown to an optical density (OD600) of ~0.2 measured using a Microplate Spectrophotometer (Molecular Devices Spectra Max Plus). 100 μL of microbial culture containing ~5×10^5 CFU/mL of bacteria in the respective broths were introduced into each well containing 100 μL of peptides and incubated overnight at 37° C. Next, to check the bactericidal effects, 100 μL from each well was transferred and spread on sterile MH2 agar plates. The plates were incubated overnight at 37° C. and the number of colonies forming units (CFU) were calculated the following day. Readings of bacteria grown in media without any treatments were normalized to 100% as media control. For the mixed infection study, three freshly plated bacteria colonies each from PA, SA and ST plates were grown together in cation adjusted MH2 broth and proceeded as described above.

For series [3], the system named is Pseudomonas aeruginosa (PA). Nature of the series: Murine excisional wound infection model (PA). Format: in vivo, mouse infected with Pseudomonas aeruginosa. To be noted: mouse; 1x MBC (6.25 μM), 24 h treatment, vs PBS; p<0.05. How it is done:
Excisional wounds in mice are infected with Pseudomonas aeruginosa (PA) for 24 hrs followed by 24 hrs of treatment with E1AM2 or PBS. Each circle represents a single mouse. Statistical analysis was performed by the two-tailed t-test using GraphPad, *p<0.05.
Excisional wounds infected with PA for 24 hours being treated for 24 hours with the E1AM2 V8LQ19L hydrogel at its 1X MBC concentration, compared with hydrogel-only treatment in a mouse model. […] Each circle in the graph represents one mouse. Statistical significance was determined using a t-test, with *p<0.05. The data are presented as colony-forming unit counts presented as means±SEM. […] Collectively, the E1AM2 V8LQ19L peptide showcases unique functionality, combining antibacterial effectiveness and biocompatibility for dermal applications.
The murine wound infection model was carried out as described in 4 with minor modifications. Before infection, PA strain was diluted to an OD ~0.5, and normalized to 1-3×10^7 CFU/ml. A 6 mm biopsy punch (Integra Miltex, New York, USA) was used to create a full-thickness wound, and an inoculum of ~10^5 CFU of the bacteria in a 5 μl volume was applied. The wound was sealed with a Finn chamber on a Scanpor tape (Smart Practice, Phoenix, AZ, USA), and the chamber was fixed to the skin via Tegaderm patch (3M™, Minnesota, USA). […]

“Also recorded” adds a separate entry of the source. Where no end group is shown, it is not given here.

As to KKLLKKWLKLSKKALKLALSL-NH2 [V8LQ19L], in the series on bacteria, the “AMR Prevention” value was “Yes”, the “Negligible Cytotoxicity” value was “Yes”, the “No Allergic/Adverse Reactions” value is “Yes” and the Targeted bacteria-specific eradication result is given as “Yes”. The “Wound Healing Support” value with bacteria was “Yes”. Moreover, the “Antibacterial Efficacy” value with bacteria (Broad- (spectrum continues on next line)) was “Broad-”. The hemolysis at 0.5 h in “Hemolysis assay” was about 0%. Besides, the “elimination of pathogens in DFU tissue (in words)” value in series [1] (FIG. 11) is “effective elimination of pathogens”. Moreover, in series [1] (at 50 μM), the “elimination of bacteria from DFU tissue” value was “over 99%”.

For the substance “E1AM2: untagged (E1AM2), KKLLKKWVKLSKKALKLAQSL”, in series [2], the MBC came to 3.125 µM and the minimal inhibitory concentration (MIC) was found to be 3.125 µM. The “PA infection at wound site (CFU)” value in series [3] was “effective reduction of PA infection; also recorded: significant bacterial clearance at the wound site”.

For the origin of these results see patent US20260327263A1, “Anti-Bacterial Peptides” (priority 2023, published 2026).
